Activity calls are given as the source filed them. No cut-off for these calls is given here.
What was measured:
[1] = target: T1, Metabotropic glutamate receptor 3 (Homo sapiens, UniProt Q14832); assay: Antagonist activity at recombinant human mGlu3 receptor expressed in hamster AV12 cells assessed as inhibition of DCG-4-inhibited forskolin-stimulated cAMP formation up to 25 uM after 20 mins by HTRF assay relative to control; type: functional, cell-based
Target sequence in this assay (Q14832 23-879 limits assumed): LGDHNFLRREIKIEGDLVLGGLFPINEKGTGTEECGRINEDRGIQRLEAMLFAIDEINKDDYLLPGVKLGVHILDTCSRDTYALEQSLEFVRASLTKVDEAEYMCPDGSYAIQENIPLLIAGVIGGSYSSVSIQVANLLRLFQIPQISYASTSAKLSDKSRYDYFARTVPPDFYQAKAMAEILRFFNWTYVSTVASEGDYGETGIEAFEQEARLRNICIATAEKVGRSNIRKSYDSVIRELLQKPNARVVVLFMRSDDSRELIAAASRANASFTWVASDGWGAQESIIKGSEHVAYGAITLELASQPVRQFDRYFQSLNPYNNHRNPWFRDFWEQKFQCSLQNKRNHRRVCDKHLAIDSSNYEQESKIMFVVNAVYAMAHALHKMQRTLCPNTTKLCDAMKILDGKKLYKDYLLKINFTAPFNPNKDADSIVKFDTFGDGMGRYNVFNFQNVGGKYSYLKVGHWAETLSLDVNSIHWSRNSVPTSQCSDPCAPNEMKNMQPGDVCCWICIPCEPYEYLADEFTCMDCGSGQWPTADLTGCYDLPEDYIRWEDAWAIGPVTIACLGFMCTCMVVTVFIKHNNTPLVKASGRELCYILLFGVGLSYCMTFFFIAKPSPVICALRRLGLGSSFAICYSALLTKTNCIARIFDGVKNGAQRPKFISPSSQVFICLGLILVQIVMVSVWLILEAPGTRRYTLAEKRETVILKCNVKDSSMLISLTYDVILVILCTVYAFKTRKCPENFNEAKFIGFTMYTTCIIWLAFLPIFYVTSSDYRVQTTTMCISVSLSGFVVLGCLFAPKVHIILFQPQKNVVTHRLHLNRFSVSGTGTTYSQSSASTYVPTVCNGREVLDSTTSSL

[2] = Antidepressant activity in ip dosed NIH Swiss Webster mouse assessed as reduction in immobility time administered 30 mins prior to evaluation measured on the last 4 mins of the 6 mins observation time by forced swim test; type: functional, organism-based
[3] = target: T1, Metabotropic glutamate receptor 3; assay: Antagonist activity at recombinant human mGlu3 receptor expressed in hamster AV12 cells co-expressing human EAAT1 assessed as reduction of DCG-4-inhibited forskolin-stimulated cAMP formation after 20 mins by HTRF assay; type: functional, cell-based
[4] = Antidepressant activity in ip dosed NIH Swiss Webster mouse assessed as reduction in immobility time administered 30 mins prior to evaluation measured on the last 4 mins of the 6 mins observation time by forced swim test realtive to control; type: functional, organism-based
[5] = target: T2, Metabotropic glutamate receptor 2 (Homo sapiens, UniProt Q14416); assay: Antagonist activity at recombinant human mGlu2 receptor expressed in hamster AV12 cells assessed as inhibition of DCG-4-inhibited forskolin-stimulated cAMP formation up to 25 uM after 20 min by HTRF assay relative to control; type: functional, cell-based
Target sequence in this assay (Q14416 19-872 limits assumed): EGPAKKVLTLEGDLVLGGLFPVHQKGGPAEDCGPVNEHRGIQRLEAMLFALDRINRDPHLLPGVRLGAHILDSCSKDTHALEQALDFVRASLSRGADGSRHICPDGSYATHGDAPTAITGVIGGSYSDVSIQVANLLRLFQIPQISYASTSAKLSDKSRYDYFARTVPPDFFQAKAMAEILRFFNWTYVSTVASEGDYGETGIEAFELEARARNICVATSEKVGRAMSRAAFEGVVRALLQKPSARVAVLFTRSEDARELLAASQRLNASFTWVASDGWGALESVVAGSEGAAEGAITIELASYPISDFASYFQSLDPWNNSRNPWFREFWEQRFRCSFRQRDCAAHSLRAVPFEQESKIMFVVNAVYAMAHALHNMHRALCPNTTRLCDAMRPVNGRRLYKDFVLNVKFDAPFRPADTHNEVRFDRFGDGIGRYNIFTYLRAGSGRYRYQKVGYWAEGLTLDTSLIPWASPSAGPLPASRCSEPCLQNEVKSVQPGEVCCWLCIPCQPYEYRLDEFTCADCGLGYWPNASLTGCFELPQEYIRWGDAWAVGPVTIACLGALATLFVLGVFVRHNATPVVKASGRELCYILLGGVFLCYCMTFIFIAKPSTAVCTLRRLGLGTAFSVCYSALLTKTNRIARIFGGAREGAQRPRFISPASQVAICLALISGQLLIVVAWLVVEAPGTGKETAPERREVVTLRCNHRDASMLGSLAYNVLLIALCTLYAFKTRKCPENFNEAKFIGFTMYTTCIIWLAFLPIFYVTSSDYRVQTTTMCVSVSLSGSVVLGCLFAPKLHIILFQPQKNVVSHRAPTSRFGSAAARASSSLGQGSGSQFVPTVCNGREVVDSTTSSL

[6] = target: T2, Metabotropic glutamate receptor 2; assay: Antagonist activity at recombinant human mGlu2 receptor expressed in hamster AV12 cells co-expressing human EAAT1 assessed as reduction of DCG-4-inhibited forskolin-stimulated cAMP formation after 20 mins by HTRF assay; type: functional, cell-based
[7] = target: T2, Metabotropic glutamate receptor 2; assay: Displacement of [3H]-LY459477 from human mGlu2 receptor expressed in hamster AV12 cell membranes co-expressing human EAAT1 after 90 mins by liquid scintillation counting method
Target sequence in this assay (Q14416 whole entry): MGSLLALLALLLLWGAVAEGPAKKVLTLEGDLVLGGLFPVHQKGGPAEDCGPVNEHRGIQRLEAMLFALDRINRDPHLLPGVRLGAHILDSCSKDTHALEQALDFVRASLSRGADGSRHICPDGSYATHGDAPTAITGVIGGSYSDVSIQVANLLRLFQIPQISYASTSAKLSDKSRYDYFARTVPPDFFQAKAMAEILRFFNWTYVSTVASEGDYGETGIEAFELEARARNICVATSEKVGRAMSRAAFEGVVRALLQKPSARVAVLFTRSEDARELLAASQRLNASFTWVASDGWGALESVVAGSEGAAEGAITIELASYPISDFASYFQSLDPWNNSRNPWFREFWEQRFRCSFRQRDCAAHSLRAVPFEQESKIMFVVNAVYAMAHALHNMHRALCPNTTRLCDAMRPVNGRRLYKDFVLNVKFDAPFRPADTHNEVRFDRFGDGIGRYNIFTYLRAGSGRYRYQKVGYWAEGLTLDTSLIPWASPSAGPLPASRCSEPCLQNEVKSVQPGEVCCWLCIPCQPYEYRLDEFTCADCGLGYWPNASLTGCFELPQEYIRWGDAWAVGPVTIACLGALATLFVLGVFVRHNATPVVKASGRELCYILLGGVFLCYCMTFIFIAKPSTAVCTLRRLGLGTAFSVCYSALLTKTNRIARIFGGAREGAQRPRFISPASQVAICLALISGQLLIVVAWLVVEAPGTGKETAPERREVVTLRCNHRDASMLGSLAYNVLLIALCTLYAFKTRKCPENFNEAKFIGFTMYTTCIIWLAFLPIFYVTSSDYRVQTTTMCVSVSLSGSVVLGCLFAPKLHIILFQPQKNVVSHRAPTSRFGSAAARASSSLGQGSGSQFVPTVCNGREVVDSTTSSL

[8] = target: T1, Metabotropic glutamate receptor 3; assay: Displacement of [3H]-LY459477 from human mGlu3 receptor expressed in hamster AV12 cell membranes co-expressing human EAAT1 after 90 mins by liquid scintillation counting method
Target sequence in this assay (Q14832 whole entry): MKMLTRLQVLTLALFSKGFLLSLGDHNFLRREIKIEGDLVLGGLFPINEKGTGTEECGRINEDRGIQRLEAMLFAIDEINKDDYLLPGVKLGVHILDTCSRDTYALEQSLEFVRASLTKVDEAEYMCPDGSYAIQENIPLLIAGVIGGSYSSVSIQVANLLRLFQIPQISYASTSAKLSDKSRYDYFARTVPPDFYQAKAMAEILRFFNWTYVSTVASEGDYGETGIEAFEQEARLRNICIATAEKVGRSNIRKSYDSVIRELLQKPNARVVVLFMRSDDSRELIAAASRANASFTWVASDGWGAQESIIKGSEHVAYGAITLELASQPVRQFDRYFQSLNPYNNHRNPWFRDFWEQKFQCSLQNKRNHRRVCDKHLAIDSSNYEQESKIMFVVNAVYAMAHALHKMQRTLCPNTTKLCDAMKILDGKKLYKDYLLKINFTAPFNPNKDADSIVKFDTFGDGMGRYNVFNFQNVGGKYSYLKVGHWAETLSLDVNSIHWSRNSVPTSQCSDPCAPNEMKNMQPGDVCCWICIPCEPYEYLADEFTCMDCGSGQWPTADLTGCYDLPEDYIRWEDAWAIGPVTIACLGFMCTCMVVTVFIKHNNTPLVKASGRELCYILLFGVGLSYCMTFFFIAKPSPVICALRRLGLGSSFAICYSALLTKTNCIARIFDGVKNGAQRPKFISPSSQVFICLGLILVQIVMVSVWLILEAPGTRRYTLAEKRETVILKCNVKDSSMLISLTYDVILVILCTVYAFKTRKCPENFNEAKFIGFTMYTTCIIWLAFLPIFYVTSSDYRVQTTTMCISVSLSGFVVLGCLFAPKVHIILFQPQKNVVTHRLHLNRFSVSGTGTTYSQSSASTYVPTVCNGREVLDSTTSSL

inhibition [1] | IC50 [3] | Imax [3] | inhibition [5] | IC50 [6] | Imax [6] | Ki [7] | Ki [8] | SMILES | ED60 [2] | MED [2] | Emax [4]
Active | 0.0385 µM | > 94% | – | – | – | – | – | N[C@]1(C(=O)O)[C@@H]2[C@@H](C(=O)O)[C@@H]2[C@H](Sc2ncc[nH]2)[C@H]1OCc1ccc(Cl)c(Cl)c1 | 9.1 mg/kg | 10 mg/kg | 41%
Active | 0.185 µM | > 94% | – | – | – | – | – | N[C@]1(C(=O)O)[C@@H]2[C@@H](C(=O)O)[C@@H]2[C@@H](O)[C@H]1OCc1cc(Cl)ccc1Cl | – | – | –
Active | 0.153 µM | > 94% | Active | 0.169 µM | > 94% | 0.076 µM | – | N[C@]1(C(=O)O)[C@@H]2[C@@H](C(=O)O)[C@@H]2[C@@H](O)[C@H]1OCc1ccc(Cl)c(Cl)c1 | – | – | –
Active | 0.239 µM | > 94% | – | – | – | – | – | N[C@]1(C(=O)O)[C@@H]2[C@@H](C(=O)O)[C@@H]2[C@@H](O)[C@H]1OCc1ccccc1 | – | – | –
– | – | – | – | – | – | 0.166 µM | – | N[C@@]1(C(=O)O)C[C@@H](O)[C@H]2[C@H](C(=O)O)[C@H]21 | – | – | –
Active | 0.0143 µM | > 94% | Active | 0.0261 µM | > 94% | – | – | CC(=O)N[C@H]1[C@H]2[C@H](C(=O)O)[C@H]2[C@](N)(C(=O)O)[C@@H]1OCc1ccc(Cl)c(Cl)c1 | 9.1 mg/kg | 30 mg/kg | 41%
Active | 0.0832 µM | > 94% | – | – | – | – | – | N[C@]1(C(=O)O)[C@@H]2[C@@H](C(=O)O)[C@@H]2[C@@H](O)[C@H]1OCc1cccc(Cl)c1Cl | – | – | –
Active | 0.085 µM | > 94% | – | – | – | – | – | Cc1cc(CO[C@@H]2[C@H](O)[C@H]3[C@H](C(=O)O)[C@H]3[C@]2(N)C(=O)O)ccc1F | – | – | –
Active | 0.071 µM | > 94% | – | – | – | – | – | N[C@]1(C(=O)O)[C@@H]2[C@@H](C(=O)O)[C@@H]2[C@H](F)[C@H]1OCc1ccc(Cl)c(Cl)c1 | – | – | –
Active | 0.0235 µM | > 94% | Active | 0.0127 µM | > 94% | 0.00743 µM | 0.0027 µM | N[C@]1(C(=O)O)[C@@H]2[C@@H](C(=O)O)[C@@H]2[C@H](Sc2nc[nH]n2)[C@H]1OCc1ccc(Cl)c(Cl)c1 | 2.08 mg/kg | 3 mg/kg | 62%
Active | 0.145 µM | > 94% | Active | 0.21 µM | > 94% | – | – | N[C@]1(C(=O)O)[C@@H]2[C@@H](C(=O)O)[C@@H]2[C@@H](O)[C@H]1OCc1ccc(Cl)cc1 | – | – | –

The next lines start with the compound.

SMILES | inhibition [1] | IC50 [3] | Imax [3] | inhibition [5] | IC50 [6] | Imax [6] | Ki [7] | Ki [8] | ED60 [2] | MED [2] | Emax [4]
N[C@]1(C(=O)O)[C@@H]2[C@@H](C(=O)O)[C@@H]2[C@@H](O)[C@H]1OCc1ccc(Cl)c(F)c1 | Active | 0.127 µM | > 94% | – | – | – | – | – | – | – | –
COC(=O)N[C@H]1[C@H]2[C@H](C(=O)O)[C@H]2[C@](N)(C(=O)O)[C@@H]1OCc1ccc(Cl)c(Cl)c1 | Active | 0.0205 µM | > 94% | Active | 0.0188 µM | > 94% | – | – | 7.95 mg/kg | 10 mg/kg | 46%
N[C@@]1(C(=O)O)[C@H](Cc2ccc(F)c(Cl)c2)C[C@H]2[C@H](C(=O)O)[C@H]21 (racemic) | – | 0.0761 µM | – | – | – | – | – | – | – | – | –
N[C@H]1[C@H]2[C@H](C(=O)O)[C@H]2[C@](N)(C(=O)O)[C@@H]1OCc1ccc(Cl)c(Cl)c1 | Active | 1.07 µM | > 94% | Active | 1.13 µM | > 94% | – | – | – | – | –
[N-]=[N+]=N[C@H]1[C@H]2[C@H](C(=O)O)[C@H]2[C@](N)(C(=O)O)[C@@H]1OCc1ccc(Cl)c(Cl)c1 | Active | 0.0541 µM | > 94% | Active | 0.0345 µM | > 94% | – | – | – | – | –
N[C@@]1(C(=O)O)C[C@H](O)[C@H]2[C@H](C(=O)O)[C@H]21 | – | – | – | – | – | – | 0.23 µM | – | – | – | –
N[C@]1(C(=O)O)[C@@H]2[C@@H](C(=O)O)[C@@H]2[C@@H](O)[C@H]1OCc1cccc(Cl)c1 | Active | 0.178 µM | > 94% | Active | 0.28 µM | > 94% | – | – | – | – | –
Cn1ncnc1S[C@H]1[C@H]2[C@H](C(=O)O)[C@H]2[C@](N)(C(=O)O)[C@@H]1OCc1ccc(Cl)c(Cl)c1 | Active | 0.0296 µM | > 94% | Active | 0.0199 µM | > 94% | – | – | 7.3 mg/kg | 10 mg/kg | 47%
